For this assay, the system named is NF-κB (P65). As to the kind of experiment: NF-κB translocation to the nucleus in astrocytes (western blot). The format is cell-based, mouse. As to conditions: LPS/IFNγ; for translocation of NF-κB to the nucleus: cultured astrocytes. The protocol: FIGS. 14a-g. B4GALT6 directly controls astrocyte activation. (a) Cultured astrocytes were pre-treated for 1 h with PDMP (25 μM), LacCer (10 μM), both (LacCer+PDMP), or vehicle control (vehicle), followed by activation with LPS/IFNγ for 6 h, or left un-treated (control, Con). mRNA expression was analyzed 6 h following activation. qPCR analysis of the expression of cc/5, csf2, nos2, il6, H2-Aa, and tlr2 presented relative to gapdh. Statistical analysis by one-way ANOVA, followed by Tukey post-hoc analysis. (b, c) Cultured astrocytes were pre-treated for 1 h with LacCer (b) or PDMP (c), at indicated concentrations, followed by activation with LPS/IFNγ, or left un-treated (control, Con). Cell viability was determined 6 h after activation. […] Working concentrations (as in a) are marked in red. (d) The expression of B4galt6 (shB4galt6) or non-targeting shRNA (ShControl) in primary astrocytes was knocked-down using verified shRNA. Astrocytes were then pre-treated for 1 h with PDMP, or vehicle control (vehicle), followed by activation with LPS/IFNγ for 6 h, or left un-treated (control, Con). mRNA expression for H2-Aa, Ccl5 and Cxcl10 was determined; expression is presented as fold induction relative to housekeeping gene (Gapdh). Statistical analysis by one-way ANOVA, followed by Tukey post-hoc analysis (n≥3). […] (f) NF-κB (P65), GAPDH, and Lamin B expression, in cytoplasmic and nuclear fractions analyzed by western blot. The degree of NF-κB translocation to the nucleus was assessed by the ratio between the expression of P65 in nuclear and cytoplasmic fractions following densitometric quantification on four independent experiments (Right panel). […] (g) Expression of CCL-2 or iNOS in IRF-1^+ GFAP^+ astrocytes determined by IF during chronic EAE. […]
Astrocytes were treated as indicated, and total extracts (30 μg of protein), or the nuclear and cytoplasmic subcellular fractionations of cells, were separated by NuPAGE 10% Bis-Tris Gel (Invitrogen), and electroblotted onto supported nitrocellulose membrane. […] Data quantification was done using Image Studio software (Version 3.1.4) (LI-COR, Inc.)
For orientation: A western blot detects proteins with antibodies after separation by electrophoresis.

`CCCCCCCCCC(=O)N[C@H](CN1CCOCC1)[C@H](O)c1ccccc1` [PDMP, D-threo-1-phenyl-2-decanoylamino-3-morpholino-1-propanol]: the “translocation of NF-κB to the nucleus” value is given as “decreased translocation of NF-κB to the nucleus”.

lactosylceramide [LacCer]: the “translocation of NF-κB to the nucleus” value is “triggered NF-M3 activation”. Moreover, under “LacCer + PDMP”, the “NF-κB translocation, LacCer added to PDMP” value is “abrogated the inhibition induced by PDMP”.

The values above are taken from US9927437B2, “Treating neurodegenerative disease” (THE BRIGHAM AND WOMEN'S HOSPITAL, INC., priority 2013, dated 2018).
